Article PMC3684770 (Free Radical Biology & Medicine, 2013)

Legend:
[1] = Pharmacokinetic analysis in C57Bl/6 mice; format: in vivo, mouse; conditions: 1 mg/kg
Protocol: Pharmacokinetic studies were performed by Pharmidex (London, UK). […] All concentrations were calculated with reference to the relevant standard curve. An extraction buffer (EB) solution of acetonitrile with 0.1% formic acid (Fisher Scientific, HPLC grade) and 500 ng/ml of propranolol as the internal standard (IS) was used for in all extraction protocols.

[2] = test system: primary fibroblasts from ALS patients; experiment: Oxidative stress assay in ALS patient and control fibroblasts; format: cell-based, human; conditions: 3.7 or 0.41 µM, 24 h
Protocol: Fibroblasts were obtained from human controls (n=3) and ALS patients with I113T SOD1 mutations (n=3) and sporadic ALS patients (n=2). […] The cells were incubated at 37 °C/5% CO2 overnight. The following day the media were removed and the cells were washed with 200 µl 1XP BS. Phenol red-free DMEM/F12 media (Sigma D6434) was added in the presence of 10% serum/2 mM Gln (++), 10% serum/0 mM Gln (+−), or 0% serum/0 mM Gln (−−). Cells were incubated at 37 °C/5% CO2 for 5 h.
Carboxy-H2DCFDA fluorescence was normalised to live cell number (total EthD1 signal after freeze/thaw – EthD1 signal after assay) to compare between the different cell lines. Data were analysed by one-way ANOVA with Bonferroni post tests using GraphPad Prism
DMEM/F12 (50 µl) media were added in the presence of 10% serum/0 mM Gln (+−) and the cells were incubated at 37 °C and 5% CO2 for 5 h.
The data were tested for normality and analysed by one-way ANOVA using GraphPad Prism.

[3] = mouse ref 73; cited from earlier work
[4] = cited from earlier work

CN1CCc2cccc3c2[C@H]1Cc1ccc(O)c(O)c1-3 [apomorphine]
Kp ([1]; C57Bl/6, mouse, brain / plasma, intravenous, read-out: brain:plasma (Kp)): 2.1
clearance ([1]; C57Bl/6, plasma, mouse, iv): 109 mL/min/kg
cell number compared to DMSO control [2]: no effect on cell number
plasma protein binding fraction (unbound) [3]: 0.222
fraction absorbed following subcutaneous dosing ([4]; humans ref 75): 1
Tmax following subcutaneous dosing ([4]; humans ref 76): 8 to 16 min
